pIC50: −log10 of the molar value.
Biological target: T1, Tyrosinase (Agaricus bisporus, UniProt O42713)
T1 sequence (O42713 whole entry): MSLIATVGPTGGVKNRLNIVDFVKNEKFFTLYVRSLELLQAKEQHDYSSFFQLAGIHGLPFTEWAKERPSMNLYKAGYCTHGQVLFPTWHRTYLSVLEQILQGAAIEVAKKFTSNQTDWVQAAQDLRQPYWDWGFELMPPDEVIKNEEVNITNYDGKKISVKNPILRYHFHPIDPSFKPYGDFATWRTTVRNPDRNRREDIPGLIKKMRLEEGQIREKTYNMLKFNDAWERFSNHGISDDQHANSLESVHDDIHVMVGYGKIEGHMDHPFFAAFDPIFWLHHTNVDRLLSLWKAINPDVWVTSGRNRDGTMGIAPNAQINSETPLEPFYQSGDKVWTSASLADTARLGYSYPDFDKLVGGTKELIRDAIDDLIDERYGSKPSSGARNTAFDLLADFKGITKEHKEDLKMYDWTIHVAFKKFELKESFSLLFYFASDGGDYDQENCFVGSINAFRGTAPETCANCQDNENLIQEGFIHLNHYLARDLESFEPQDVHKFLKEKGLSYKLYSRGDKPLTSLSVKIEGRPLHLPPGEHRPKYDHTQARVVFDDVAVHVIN
Description: Inhibition of mushroom tyrosinase

For `Oc1cc(O)cc(CC(c2ccc(O)cc2O)c2c(O)cc(/C=C/c3ccc(O)cc3O)cc2O)c1` (configuration not stated) [ANDALASIN A], the pIC50 was 4.41.
For `Oc1cc(O)cc(/C=C/c2cc(C(Cc3cc(O)cc(O)c3)c3ccc(O)cc3O)c(O)cc2O)c1` (configuration not stated) [ARTOGOMEZIANOL], the pIC50 was 4.17.

Reference: ChEMBL document CHEMBL1156378, “A new dimeric stilbene with tyrosinase inhibitiory activity from Artocarpus gomezianus” (J Nat Prod, 2001)
